According to patent US12049475B2, “Bisphosphonate drug conjugates” (BRISE PHARMACEUTICALS CO., LTD., priority 2018, dated 2024):
Entries after “also recorded” stand apart in the source; their conditions may differ.

How the values were obtained:
CED mice [1] = test: CED mouse model: flow cytometry of tibia bone marrow cells; type: in vivo; conditions: for CD31+Emcn+ double positive cells (FACS of tibia bone marrow): 8-week treatment; for number of LepR+ cells in bone marrow (FACS): distal one-third of tibia, 2 months of treatment
Method: Flow cytometry: Bone marrow cells in the distal one-third of tibia were collected from each group (n=6) after 2 months of conjugate treatment. Red blood cells were lysed in commercial ACK lysis buffer (Quality Biological, Inc., 118-156-101). After centrifugation (1,200 r.p.m. for 5 min at room temperature), cell pellets were resuspended and fixed in 4% PFA. Cells were then washed with 0.1% BSA in PBS and counted. One million cells per milliliter were permeabilized in 0.1% Triton X-100 before blocking in 3% FACS buffer (PBS, 3% FBS, and 0.1% NaN3 sodium azide) for 30 min on ice. Cells were incubated with endomucin antibody (Santa Cruz, sc-65495), Leptin Receptor (R&D, 1:100, AF497), or isotype control antibody for 1 h at 37° C. in a dark room and then washed twice with 0.1% BSA in PBS. After washing, cells were stained with APC-conjugated CD31 antibody (R&D Systems, FAB3628A) for 45 min. Cells were acquired immediately after washing with 3% FACS buffer. Probes were analyzed using a FACS Calibur flow cytometer and CellQuest software (Becton Dickinson).

[2] = pharmaceutical data, cited from earlier work
CED mice [3] = test: CED mouse model: histology and immunofluorescence of tibia (HE, TRAP, Ocn, Osx, Col1, CD31/Emcn, LepR); type: in vivo; conditions: for number of Col1+ cells compared with Littermate group / number of Ocn+ cells compared with Littermate group / number of Osx+ cells compared with Littermate group: co-staining with Emcn; for LepR+pSmad2/3+ dual positive BMSC (immunofluorescence): tibia sections
Method: (§1) Mice: According to Tang et al., Nat Med. 15:757-765 (2009), a mutation in the coding area of the TGF-β1 latency protein was generated in mice, and the active form of TGF-β1 was secreted by osteoblasts. […] All mice received the intraperitoneal injections once a week for 2 months, beginning at 1 month of age until sacrifice at 3 months of age. The tibias of the mice were collected and analyzed.
(§2) Immunostaining was performed using a standard protocol.
Immunofluorescence staining was performed using as described. […] Secondary antibodies conjugated with fluorescence were added, and slides were incubated at room temperature for 1 h while avoiding light. Sections were microphotographed to perform histomorphometric measurements (Olympus DP71). The quantitative histomorphometric analysis was conducted in a blinded fashion with OsteoMeasureXP Software (OsteoMetrics, Inc.). […]

CED mice [4] = test: CED mouse model, 8-week treatment: μCT of tibia and fracture incidence; conditions: for total BV/TV: among all groups; for bone fracture incidence: 100 μg/kg i.p. once a week, 2-month (8-week) treatment
Method: All transgenic animals used in this study are as described in the Animals section. […] During cell counting, microCT analysis and histological staining analysis, all manual quantification is performed in a blind manner to eliminate observer bias. Animals were randomly assigned to groups for experiments in CED animal studies.
as §1
Microcomputed tomography analysis: Tibia collected from mice were dissected to remove soft tissue, fixed overnight in 70% ethanol, and analyzed with a high-resolution microcomputed tomography (μCT) imaging system (MicroCT40; Scanco Medical AG, Basserdorf, Switzerland). The scanner was set at a voltage of 55 kVp and a current of 109 μA. The resulting two-dimensional longitude-sectional images or three-dimensional whole-bone images are shown in gray scale. Three-dimensional structural parameters, total bone volume per tissue volume, cortical bone volume, cortical bone thickness, and cortical bone porosity were given.

[5] = test system: TGF-β1 signaling in tibias; test: pSmad2/3 staining of tibias after intraperitoneal injection (bone delivery and release); conditions: 100 μg/kg intraperitoneal injection, compared with vehicle control
Method: Histochemistry, immunohistochemistry, and immunofluorescence: At the time of euthanasia, tibias were collected and fixed in 10% buffered formalin for 48 h, decalcified in 10% EDTA (pH 7.4) for 14 d, and then embedded in paraffin. […] Immunostaining was performed using a standard protocol. Sections were incubated with primary antibodies to mouse pSmad2/3 (Santa Cruz Biotechnology Inc., 1:50, sc-11769) and osteocalcin (Takara Bio Inc., 1:200, M137) overnight at 4° C. For immunohistochemical staining, a liquid Diaminobenzidine (DAB)+Chromogen System (Dako, K3468) was used to detect immunoreactivity, followed by counterstaining with hematoxylin and eosin (Sigma-Aldrich, MHS16).
Compound 1 was also tested for tissue distribution following intraperitoneal injection. […] It was then determined whether the conjugate delivered TβR1I (TGF-beta type 1 receptor inhibitor) specifically to bone and hydrolyzed over time (intraperitoneal injection, DMSO, 100 μg/kg of ALN, Inhibitor, or Conjugate).

bone metastasis = conditions: literature; cited from earlier work
[6] = test system: heart, liver, lung, and kidney; test: HE and pSmad2/3 staining of heart, liver, kidney and lung; type: in vivo, mice; conditions: after conjugate administration
Method: as §2

TGF-β1 signaling pathway = test: CED mouse model: pSmad2/3 immunohistochemistry of tibia; type: in vivo, mice; conditions: 8-week treatment, compared with CED group and ALN group
Method: as §1, §2
Immunofluorescence staining was performed using as described. […] Secondary antibodies conjugated with fluorescence were added, and slides were incubated at room temperature for 1 h while avoiding light. Sections were microphotographed to perform histomorphometric measurements (Olympus DP71). The quantitative histomorphometric analysis was conducted in a blinded fashion with OsteoMeasureXP Software (OsteoMetrics, Inc.). The number of positively stained cells in the whole tibia subchondral bone area per specimen was counted in five sequential sections per mouse in each group.

[7] = test system: TGF-β1 signaling (pSmad2/3) in BMSCs; test: pSmad2/3 immunofluorescence staining of BMSCs exposed to TGF-β1; type: cell-based, mice; conditions: 10 μM for 1 h, 24 h, 48 h, then 5 ng/ml TGF-β1 for 30 min
Method: (§3) Cell culture: HeLa cells and BMSCs from mice were cultured in Dulbecco's Modified Eagle's Medium (GIBCO) supplemented with 10% fetal bovine serum (FBS; Sigma), 100 units/ml penicillin, 100 μg/ml streptomycin (Sigma), and 2 mM glutamine and were incubated at 37° C. in a humidified chamber supplemented with 5% CO2. […] Cells were then exposed to 5 ng/ml of recombinant human TGF-β1 (R&D Systems) for 30 min and processed for cell staining and Western blotting.
Cell staining: BMSCs were washed 3 times with PBS and fixed by 4% paraformaldehyde (PFA) for 30 min. Cells were then washed 3 times with PBS and incubated with 3% BSA, 0.1% Triton in PBS for 1 h. […] Secondary antibodies conjugated with fluorescence were added, and plates were incubated at room temperature for 1 h while avoiding light. Cells were counted under the microscope (Olympus DP71).

wild-type mice = test: 7-day survival of wild-type mice after conjugate injection; type: in vivo
Method: FIG. 1 presents graphs showing that a conjugate of the present disclosure, Compound 1, delivers a TβR1I specifically to bone and releases it in a time-dependent manner. […] Part (C) presents quantification of the Western-blot band intensity in (B). Data are presented as relative level of p-SMAD2/SMAD2 ratio normalized to DMSO condition. […] Part (E) presents quantification data of pSmad2/3^+ cells in (D). […] Of 6 mice in the 5 mg/kg group, 2 died in 7 days. […] Part (H) presents quantification data of pSmad2/3^+ cells in (G). In FIG. 1, the following conventions are used: NS, not significant. **P<0.01, ****P<0.0001 determined by multifactorial ANOVA. All data are reported as the mean±s.d.

[8] = test system: TGF-β1 signaling (pSmad2) in HeLa cells; test: Western blot of pSmad2 in HeLa cells exposed to TGF-β1; type: cell-based, human
Method: as §3
Western blot: HeLa cells were lysed with […] and […] (Roche), and mixed with an equal volume of 2×SDS-PAGE sample buffer with DTT. Samples were boiled and cleared by centrifuge, separated by SDS-PAGE, and transferred onto nitrocellulose (NC) membranes. Membranes were blocked with 5% non-fat dry milk and incubated with primary antibodies at 4° C. overnight. Primary antibodies include rabbit anti-Smad2 antibody (Cell Signaling Technology, 3122, 1:1,000) and rabbit anti-Phospho-Smad2 (Ser465/467) antibody (Cell Signaling Technology, 3108, 1:1,000). HRP-conjugated goat anti-rabbit IgG (Santa Cruz Biotechnology, 2054, 1:5,000) was used as secondary antibody. Signals were detected with Super Signal West Dura Extended Duration Substrate (Thermo Scientific).

CED mice [9] = conditions: intraperitoneal injection; Nat Med. 15:757-765 (2009); cited from earlier work

Compound: NCCCC(O)(P(=O)(O)O)P(=O)(O)O [ALN, 4-amino-1-hydroxybutylidene-1,1-bisphosphonic acid monosodium trihydrate, reference compound]
- CD31+Emcn+ double positive cells (FACS of tibia bone marrow) (CED mice [1]): highly increased
- number of LepR+ cells in bone marrow (FACS) (CED mice [1]): significantly increased
- time to reach bone [2]: less than 2 hours
- fraction that reaches bone ([2]; the rest is excreted in urine): 50-70%
- CD31+Emcn+ vessel surfaces (immunofluorescence) (CED mice [3]; 8-week treatment): highly increased
- bone formation in diaphysis bone marrow (HE staining) (CED mice [3]; 8-week treatment, compared with Conjugate and Littermate group): aberrant bone formation was found
- number of Col1+ cells compared with Littermate group (CED mice [3]): significantly increased
- number of Ocn+ cells compared with Littermate group (CED mice [3]): significantly increased
- number of Osx+ cells compared with Littermate group (CED mice [3]): significantly increased
- LepR+pSmad2/3+ dual positive BMSC (immunofluorescence) (CED mice [3]): significantly increased
- bone porosity rate (CED mice [4]; 100 μg/kg per week, 8 weeks): significantly increased
- cortical bone thickness (CED mice [4]; 100 μg/kg per week, 8 weeks): significantly increased
- total cortical bone volume (CED mice [4]; 100 μg/kg per week, 8 weeks): decreased
- total BV/TV (CED mice [4]; 100 μg/kg per week, 8 weeks): no significant difference
- bone fracture incidence (CED mice [4]; CED mice): 50%

Compound: OCCOc1ccc2c(-c3c(-c4ccccn4)nn4c3CCC4)ccnc2c1 [Compound S-3, reference compound]
- TGF-β1 signaling in tibias (pSmad2/3 staining) [5]: did not inhibit TGF-β1 signaling; also recorded: did not show significant differences

Compound: Fc1ccc(Cl)cc1-c1nc(Nc2ccncc2)c2nccnc2n1 [SD-208]
- bone metastasis in mice (bone metastasis): effective in treating mice with bone metastases

Compound: c1ccc(-c2nn3c(c2-c2ccnc4cc(OCCN5CCOCC5)ccc24)CCC3)nc1 [LY2109761]
- bone metastasis in mice (bone metastasis): reduce a potential of bone metastasis

Compound: O=C(NCCCC(O)(P(=O)(O)O)P(=O)(O)O)OCCOc1ccc2c(-c3c(-c4ccccn4)nn4c3CCC4)ccnc2c1 [Compound 1, (1-hydroxy-4-(((2-((4-(2-(pyridin-2-yl)-5,6-dihydro-4H-pyrrolo[1,2-b]pyrazol-3-yl)quinolin-7-yl)oxy)ethoxy)carbonyl)amino)butane-1,1-diyl)bis(phosphonic acid)]
- CD31+Emcn+ double positive cells (FACS of tibia bone marrow) (CED mice [1]): significantly reduced
- number of LepR+ cells in bone marrow (FACS) (CED mice [1]; listed as conjugate): significantly decreased
- HE staining and pSmad2/3 staining of heart, liver, lung, and kidney [6]: normal tissue structures and TGF-β1 activation; also recorded: does not affect other organs
- pSmad2/3 positive cells in tibia (TGF-β1 signaling pathway): significantly decreased
- number of pSmad2/3-positive cells (immunofluorescence) [7]: significantly reduced
- TGF-β1 signaling in tibias (pSmad2/3 staining) [5]: significantly reduced; also recorded: inhibited in a time-dependent manner
- 7-day survival (wild-type mice; 50 μg/kg, one intraperitoneal injection per week, n=6): no mice death; also recorded: survived for 7 days
- 7-day survival (wild-type mice; 100 μg/kg, one intraperitoneal injection per week, n=6): no mice death; also recorded: survived for 7 days
- 7-day survival (wild-type mice; 1 mg/kg, one intraperitoneal injection per week, n=6): no mice death; also recorded: survived for 7 days
- mice that died in 7 days (of 6) (wild-type mice; 5 mg/kg, one intraperitoneal injection per week): 2
- 7-day survival (wild-type mice; 10 mg/kg, one intraperitoneal injection per week): all died in 3 days
- safe dose (wild-type mice; intraperitoneal administration, wild-type mice): below 5 mg/kg per week
- bone remodeling of CED mice (CED mice [3]; 2-month treatment): restored normal bone remodeling
- CD31+Emcn+ vessel surfaces (immunofluorescence) (CED mice [3]; 8-week treatment): rescued abnormal vessel formation
- number of TRAP+ cells (CED mice [3]; 8-week treatment, diaphysis): decreased
- number of Ocn+ cells (CED mice [3]; 8-week treatment, diaphysis, TRAP and Ocn co-staining): decreased
- level of TGF-β1 (CED mice [3]; CED mice): decreased
- number and distribution of Osx+, Col1α+, and Ocn+ cells (CED mice [3]; CED mice): rescued
- type H vessels (CED mice [3]; CED mice): significantly decreased
- number of Col1+ cells compared with Littermate group (CED mice [3]): no significant difference
- number of Ocn+ cells compared with Littermate group (CED mice [3]): no significant difference
- number of Osx+ cells compared with Littermate group (CED mice [3]): no significant difference
- LepR+pSmad2/3+ dual positive BMSC (immunofluorescence) (CED mice [3]): significantly decreased
- cortical bone parameters compared with Littermate group (CED mice [4]; 100 μg/kg per week, 8 weeks): no significant difference
- total BV/TV (CED mice [4]; 100 μg/kg per week, 8 weeks): no significant difference
- bone morphology of tibia (μCT three-dimensional reconstruction) (CED mice [4]; 100 μg/kg per week, 8 weeks, compared with CED and ALN-treated mice): significantly improved
- total BV/TV distribution (CED mice [4]; 100 μg/kg per week, 8 weeks, tibia cross-sections): restored
- bone parameters (CED mice [4]; 2-month treatment): restored bone parameters
- side effects (CED mice [4]; CED mice): no obvious side effects
- bone fracture incidence (CED mice [4]; CED mice): 8.3%
- dose that effectively attenuated CED progression (CED mice [4]; CED mice, intraperitoneal): 100 μg/kg per week
- expression level of pSmad2 (Western blot) ([8]; HeLa cells, 10 μM for 1 h, 24 h, 48 h, then 5 ng/ml TGF-β1 for 30 min): significantly reduced
- start of TβR1I release in cells (after) ([8]; Western blotting and immunofluorescence staining): ≥ 24 h

Compound: Cc1cccc(-c2[nH]c(C(C)(C)C)nc2-c2ccc3c(c2)OCO3)n1 [SB505124]
- bone remodeling defects in CED mice (CED mice [9]): rescued bone remodeling defects
